Consider 1 compound from patent US7678390B2, “Carbon monoxide as a biomarker and therapeutic agent” (priority 1999, dated 2010).

The test system of this assay is RAW 264.7 macrophages. Kind of assay: LPS-induced cytokine production in macrophages (ELISA, Western). It counts as cell-based, mouse. Particulars: for TNF-α: RAW 264.7 macrophages. From the text:
Animals. Male C57BL/6 and IL-10 (−/−) mice were purchased from Jackson Laboratory (Bar Harbor, Me.), and allowed to acclimate for one week with rodent chow and water ad libitum. The MKK (−/−) mice were generated as previously described [Lu, et al., EMBO J. 18:1845-1857 (1999)]. Wild type littermates were used as controls. All animals were housed in accordance with guidelines from the American Association for Laboratory Animal Care and Research Protocols and were approved by the Animal Care and Use Committee of Yale University School of Medicine. Reagents. All reagents were purchased from Sigma Chemical Co. (St Louis, Mo.) unless specified otherwise. Plasmid Construct. Plasmid pSFFV/HO-1 was constructed by insertion of the rat HO-1 cDNA [Shibahara, et al., Proc. Natl. Acad. Sci. USA. 82: 7865-7869 (1985)] downstream of the Friend spleen focus-forming virus 5′ long-terminal repeat in the mammalian expression vector pSFFV/neo [Fuhlbrigge, et al, Proc. Natl. Acad. Sci. USA. 85: 5649-5653 (1988)] (kindly provided by Stanley Korsmeyer). Transfection. Stable transfections were carried out by the calcium phosphate precipitation technique as previously described [Alam, J., J. Biol. Chem. 269: 25049-25056 (1994)]. Briefly, RAW cells were plated (1×10^6/10 cm plate) and 16 h later, transfected with […] of pSFFV/neo or pSFFV/HO-1. Cells were exposed to the DNA-CaPO4 precipitate for 6 h, shocked by a 1 min treatment with glycerol in phosphate-buffered saline and cultured for an additional 24 h in complete medium before addition of G418. Transfectants were selected over a 3-week period in the presence of G418 (up to […]) and individual clones were isolated by limited dilution. Cell Culture Experimentation. RAW 264.7 mouse peritoneal macrophages were purchased from […] (Rockville, Md.) and primary culture of rat pulmonary vascular smooth muscle cells were harvested from male Sprague Dawley rats (250-300 g) as previously described [Gunther, et al., J. Cell. Biol. 92: 289-298 (1982).]. Both cell types were grown in DMEM containing 10% FBS and gentamicin ([…]) in a humidified atmosphere of 5% CO2/balanced air or 250 ppm CO/5% CO2/balanced air. After a 2 h pretreatment with either CO or air, LPS ([…]) or sterile saline was added to the culture media and the culture plates were returned to the chamber(s). At various time points, cell plates were removed from the chamber to collect media and/or cells for Western analysis. CO Exposures. Mice or macrophages were exposed to compressed air or 250 ppm CO. For cell culture experiments, 5% CO2 was also present for buffering requirements. CO at a concentration of 1% (10,000 ppm) in compressed air was mixed with compressed air with or without CO2 in a stainless steel mixing cylinder before delivery into the exposure chamber. Flow into the 3.70-ft^2 plexiglass animal chamber was maintained at 12 L/min and into the 1.2 ft^2 cell culture chamber at a flow of 2 L/min. The cell culture chamber was humidified and maintained at 37° C. A CO analyzer (Interscan, Chatsworth, Calif.) was used to measure CO levels continuously in the chambers. Gas samples were taken by the analyzer through a port in the top of the chambers at a rate of 1 L/min and analyzed by electrochemical detection, with a sensitivity of 10-600 ppm. Concentration levels were measured hourly and there were no fluctuations in the CO concentrations once the chamber had equilibrated (approximately 5 min). Animal Experimentation. Mice were prebled from the retroorbital sinus (0.25 ml) and then exposed to CO (250 ppm) or room air for 1 h prior to administration of LPS (1 mg/kg, i.p.), E. coli serotype O127:B8. 1 and 16 h thereafter, they were removed from the exposure apparatus individually and a blood sample was obtained via the retroorbital sinus. After the blood collection, the mice were immediately returned to the exposure chamber. […]

Regarding `Nc1nc2c(nc(Br)n2[C@@H]2O[C@@H]3COP(=O)(O)O[C@H]3[C@H]2O)c(=O)[nH]1` [8-Br-cGMP, reference compound], the TNF-α was found to be 530 ± 35 pg/mL (with LPS) and 18 ± 6 pg/mL (without LPS). The “effect on LPS-induced TNF-α production” value (added to macrophage culture followed by LPS) is “no effect”.
